A short description of assay [1]: Lacrimation stimulating activity of odorant substances in mice. It is filed as in vivo. The following applies: for Change in lacrimation output after 15 minutes (%): 30 mg/kg into the caudal vein, relative to the average of two measurements before administration. The method, then: Then, using (R)-(−)-carvone, (+)-pregon, borneol, trans-4-methylcyclohexanol, and menthol, all of which are odorant substances, each dissolved in 0.1% hydrogenated castor oil-saline, the lacrimation-stimulating activities of these substances were evaluated in vivo. The method used was as follows.
The tear fluid was collected from the left eye of mice at 15-min intervals using a glass microcapillary tube (aspiration capacity 0.5 μL/32 mm). The amount of aspirated tear fluid was measured in length (mm) using calipers and converted to μL for use as a marker of lacrimation output. Mice were anesthetized by intraperitoneal administration of Nembutal Anesthetic Solution (0.2 mL/10 g body weight, dosage 60 mg/kg). After the loss of pain reflex was confirmed in the mice, the measurement of lacrimation output was started. Measurements were invariably carried out at 15-min intervals from the start to the end. After two initial measurements made 15 minutes apart, each test substance (dosage 30 mg/kg) was immediately administered into the caudal vein of mice at a ratio of 0.1 mL/10 g body weight. Thereafter, the collection of tear fluid was carried out at 15-min intervals.
The change in lacrimation output was expressed in the percentage of the lacrimation output at each measurement relative to the average of the lacrimation outputs at two initial measurements prior to administration of each test substance.

Assay [2] is described as follows: Combined use of an odorant substance and pilocarpine hydrochloride on lacrimation output in mice. The assay is classed as in vivo. The method, then: The effect of the combined use of (R)-(−)carvone, i.e. the odorant substance used in Example 1, and pillocarpine hydrochloride was evaluated. The method used was as follows. The tear fluid was collected from the left eye of mice at 15-min intervals using a glass microcapillary tube (aspiration capacity 0.5 μL/32 mm). The amount of aspirated tear fluid was measured in length (mm) using calipers and converted to μL for use as a marker of lacrimation output. Mice were anesthetized by intraperitoneal administration of Nembutal Anesthetic Solution (0.2 mL/10 g body weight, dosage 60 mg/kg). After the loss of pain reflex was confirmed in the mice, the measurement of lacrimation output was started. Measurements were invariably carried out at 15-min intervals from the start to the end. After two initial measurements made 15 minutes apart, the test substance was immediately administered into the caudal vein of mice at a ratio of 0.1 mL/10 g body weight. Then, the measurement was repeated at 15-min intervals. Immediately after the measurement of lacrimation output at 15 minutes following administration of the test substance, […] pilocarpine hydrochloride was administered subcutaneously at 0.1 mL/10 g body weight (dosage 5 mg/kg). The collection of tear fluid was further carried out 4 times at 15-min intervals. […] The results on (R)-(−)-carvone (dosage 30 mg/kg) are shown in the graph in FIG. 3. […]

A further assay relates to sodium-potassium ATPase. The following applies: olfactory tissue; Life Sciences, 20, 1051-1062 (1977); cited from earlier work.
The target in a further assay is T1, lens aldose reductase (Homo sapiens, UniProt P15121).
T1 construct: host or cells: lens
The following applies: Arch. Pharm. Res., 11, 312-314 (1988); cited from earlier work.

The source of these data is patent publication US20040235742A1, “Water channel opener compositions and medicinal compositions for ophthalmic use” (SANTEN PHARMACEUTICAL CO., LTD., priority 1999, published 2004).

As for `CC(C)=C1CC[C@@H](C)CC1=O` [(+)-pregon], in assay [1], the “Change in lacrimation output after 15 minutes (%)” value (“Change in lacrimation output … (%)” for short) was 70.2%.

In the case of `C=C(C)[C@@H]1CC=C(C)C(=O)C1` [(R)-(−)-carvone], the “change in lacrimation output, combined use with pilocarpine hydrochloride” value in assay [2] ((R)-(-)-carvone 30 mg/kg i.v., then 0.005% pilocarpine hydrochloride s.c. (dosage 5 mg/kg) 15 minutes later, FIG. 3) is given as “marked increases in lacrimation”. The “duration of the lacrimation effect, combined use with pilocarpine” value in assay [2] (Example 4 compared with Example 3) was “further prolongation of the effect”. The “Change in lacrimation output … (%)” value in assay [1] is 61.5%. Further, the “increase in lacrimation output” value in assay [1] (Example 3, 15 to 30 minutes after administration) is “not less than 60%”. Further, the “effect on sodium-potassium ATPase” value with sodium-potassium ATPase was “influence”. For the same compound, at lens aldose reductase, the “inhibition of lens aldose reductase” value is given as “inhibit”.

With `CC1(C)C2CCC1(C)C(O)C2` (stereo not shown) [Borneol, borneol], the “Change in lacrimation output … (%)” value in assay [1] is recorded as 97.5%.

As for `CC1CCC(C(C)C)C(O)C1` (stereo not shown) [Menthol, menthol], the “Change in lacrimation output … (%)” value in assay [1] came out at 88.1%.

With `C[C@H]1CC[C@H](O)CC1` [Trans-4-methylcyclohexanol, trans-4-methylcyclohexanol], in assay [1], the “Change in lacrimation output … (%)” value is reported as 85.4%.
